Here are results for ten compounds from PubChem BioAssay (NCI).

Assay in all cases: inhibition of tumour cell growth, NCI panel, 48 h
The test system of test [1] is HOP-62 NSCLC.
The test system of test [2] is U251 CNS.
Test [3] relates to NCI-H23 lung.
Test [4] has as its system MALME-3M melanoma.
Test [5] relates to 786-0 renal.
Test [6] relates to BT-549 breast.
The test system of test [7] is PC-3 prostate.
The test system of test [8] is KM12 colon.
Test [9] deals with MDA-MB-435.
For test [10], the system named is UACC-62 melanoma.

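Where inhibition never reached the appropriate level, the endpoint shown equals the highest concentration tested. Otherwise, values were interpolated linearly from a five-concentration, 48-hour dose response in 96-well plates. At the TGI there is no net growth.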

Turning to `CC(C)(CN1CCCCC1)C(=O)/C=C/c1c(Cl)cccc1Cl`, the TGI in [1] turned out to be 4.03 µM; in [2], 2.8 µM; in test [3], 2.84 µM; in test [4] it was 2.16 µM; in test [5] it was 2.89 µM; in test [6], 4.06 µM. The TGI in test [7] came to 3.46 µM; in [8], 2.36 µM; in [9], 2.85 µM; in test [10], 2.61 µM.

Take `Cc1ccnc2sc3ccccc3c(=O)c12`: the TGI in test [1], in test [2], in test [3], in [4], in test [5] and in test [6] was > 100 µM in each case. Also, the TGI was > 100 µM in test [7], > 100 µM in test [8], > 100 µM in [9] and 63 µM in [10].

For the compound `CN(/N=C/c1ccc(Cl)c(Cl)c1)C1=NCCN1`, the TGI in [1] was 37.7 µM; in test [2] it was 59.8 µM; in test [3], > 100 µM; in [4], 36.9 µM; in test [5], 34.2 µM; in test [6], 95.3 µM. Besides, the TGI is 38.3 µM in test [7], 67.6 µM in test [8], 44.6 µM in test [9] and 35.4 µM in test [10].

For the compound `CC12CCC(C1)C(C)(C)C2OC(=O)c1ccccc1C(=O)O` (stereo not given), the TGI in [1], in test [2], in test [3], in [4], in [5] and in test [6] was > 100 µM in each case. Besides, the TGI in test [7], in test [8], in test [9] and in test [10] was > 100 µM throughout.

Regarding `CN(C)/C=N/S(=O)(=O)c1nn2c(C=O)c(-c3cc4ccccc4oc3=O)nc2s1`, the TGI in test [1] was > 59.2 µM; in test [2], > 42.6 µM; in [3], 42.4 µM; in test [4] it was 6.07 µM; in test [5], 5.24 µM; in test [6] it was 33.1 µM. The TGI in test [7] is > 48.5 µM; in test [8] it was > 49 µM; in test [9] it was 62.4 µM; in [10], 27.5 µM.

For the compound `COC1=C(OC)C(=O)C(Cc2c(Cl)nc3n2CCS3)=C(C)C1=O`, the TGI in [1] stood at 29.1 µM; in test [2], 35.2 µM; in test [3], 47.5 µM; in test [4], 21.6 µM; in [5] it was 37.9 µM; in test [6] it was 27.5 µM. In addition, the TGI in test [7] was found to be 64.2 µM; in test [8], 30.8 µM; in test [9], 29.2 µM; in test [10], 26.4 µM.

Take `COc1cc(C)cc(OC)c1/C=C/C(=O)O`: the TGI in [1], in test [2], in test [3], in test [4], in test [5] and in test [6] was > 100 µM throughout. The TGI in test [7], in [8], in test [9] and in test [10] was > 100 µM throughout.

Turning to `O=C(c1ccccc1)n1[nH]c(=O)n(-c2ccc(Cl)cc2)c1=O`, the TGI in [1], in [2], in [3], in [4], in [5] and in test [6] was > 100 µM each time. Besides, the TGI in [7], in test [8], in test [9] and in test [10] was > 100 µM each time.

As to `CC(C)=CCC/C(C)=C/CC/C(C)=C/CSc1ccc(Cl)cc1C(=O)O`, the TGI in test [1] stood at 28.1 µM; in test [2], 34.7 µM; in [3], 34.9 µM; in test [4], 38.4 µM; in [5], 30.8 µM; in test [6], 37.5 µM. Further, the TGI in [7] was found to be 29.7 µM; in test [8], 32.3 µM; in [9], 42.2 µM; in [10] it was 34.7 µM.

Take `CCOC(=O)/C=C1/Nc2cc(F)c(F)cc2NC1=O`: the TGI in [1], in [2], in test [3], in [4], in test [5] and in [6] was > 100 µM throughout. Further, the TGI in [7], in test [8], in [9] and in test [10] was > 100 µM throughout.
